Measured values reported in US20230041859A1, “USE OF TERPENOIDS IN THE TREATMENT OR PREVENTION OF FIBROTIC DISEASES” (Arjil Biotech Holding Company Limited, priority 2021, published 2023).

What was measured:
HepG2 cells = assay: Oleic acid-induced steatosis in HepG2 cells (Oil Red O); type: cell-based, human; settings: 6 h pre-treatment, then 0.5 mM OA for 24 h, OD 510 nm, at noncytotoxic concentration
Method: Oleic acid (OA) induced steatosis in HepG2 cells and may consider an in vitro model for human fatty liver disease. HepG2 cells were treated with different concentrations of oleic acid (OA) to induce steatosis. Intracellular lipid was stained by Oil Red O (ORO), and quantified by colorimetric assay. 0.5 mM OA was chosen for further studies (FIGS. 37 and 38). HepG2 cells were treated with test compounds ([…]) and incubated for 48 h (FIG. 39). HepG2 cells were seeded in 24-well plates and deprived from FBS for 24 h. These cells were then treated with different concentrations of test compounds for 6 h before induced with 0.5 mM OA for 24 h. Cells were gently washed with PBS and fixed using paraformaldehyde at RT, then stained with Oil Red (ORO) solution for 30 min at RT. ORO stain was extracted using pure isopropanol and the optical density was detected at 510 nm (FIG. 40).

[1] = tested on: cisplatin-induced renal injury; assay: Cisplatin-induced renal injury: kidney histopathology (H&E); type: in vivo, mice; settings: compound, dose not given
From the text: Kidney histopathology The anterior portion of the left lateral liver lobe from each mouse is fixed in 10% formaldehyde phosphate buffer, embedded in paraffin, cut into 5 μm sections, and then treated with an hematoxylin and eosin (H&E) stain for histological examination under the light microscopy (Nikon, ECLIPSE, TS100, Tokyo, Japan). Images are captured with a digital camera (NIS-Elements D 2.30, SP4, Build 387) at an original magnification of 400×.
(§1) Seven-to-eight-week-old male C57BL/6 mice are obtained from the BioLASCO Taiwan Co., Ltd. (Taipei, Taiwan). The animals are housed in Plexiglas cages at a constant temperature of 22±1° C. and a relative humidity of 55±5% on a 12 h dark-light cycle for at least 2 weeks before the experiment. Animals are provided food and water ad libitum. All experimental procedures are performed according to the guidelines of the Institutional Animal Ethics Committee, and the protocol is approved by the Committee for the Purpose of Control and Supervision of Experiments on Animals.
Renal fibrosis is induced via multiple injections of low-dose cisplatin. […]
The histopathological changes are analyzed to determine whether Antrodia camphorata extract and compounds affected renal failure in cisplatin-stimulated mice. […]

[2] = tested on: cisplatin-induced renal injury; assay: Mice model of cisplatin-induced renal injury: serum creatinine (CRE) and BUN; type: in vivo; settings: compounds, dose not given, daily for 7 days; p<0.001 vs cisplatin group
Method: Determination of biochemical parameters Serum creatinine and serum urea are assessed using colorimetric kits according to manufacturer's instructions. Kits of the former markers are purchased from (HUMAN Diagnostics Worldwide, Magdeburg, Germany) with a chemical analyzer (Roche Diagnostics, Cobas Mira Plus, Rotkreuz, Switzerland).
as §1
Renal fibrosis is induced via multiple injections of low-dose cisplatin. Intraperitoneal injections of cisplatin (5 mg/kg/injection; P4394, Sigma-Aldrich, St Louis, Mo.) are performed at 0, 1, and 3 weeks, for a total of 3 injections. Mice are sacrificed at 6 weeks after the first dose of cisplatin (n=6). To analyze the effects of samples, mice are given daily intraperitoneal injections for 7 days, starting from 4 weeks after first dose of cisplatin, and sacrificed at […] (n=6). […]

[3] = tested on: Con A-induced acute hepatitis; assay: Con A (concanavalin A) induced acute hepatitis in BALB/c mice; type: in vivo; settings: 24 h after Con A; mean±SEM; vehicle 1.4±0.2
From the text: Intravenous injection of concanavalin A (Con A) is a widely used strategy to study T cell mediated hepatitis. Con A is a lectin that can activate CD4^+ T cells, produce cytokines, and lead to liver cell damage. Dexamethasone (Dex) is a long acting synthetic corticosteroid, and has been used as anti-inflammatory and immunosuppressive medication.
Male BALB/c mice (7-9 weeks old) were purchased from BioLASCO Taiwan Co., Ltd or National Laboratory Animal Center (NLAC, Taiwan). Animals are housed five per cage with food and water provided ad libitum throughout the experiments. Room temperature is maintained at 23±2° C. with an alternating 12 h light dark cycle. Animals are acclimatized for one week to minimize the effect of stress before the experiments. All experimental protocols involving animals and their care are approved by the Institutional Animal Care and Use Committee (IACUC) in ITRI (ITRI-IACUC-2018-041 and ITRI-IACUC-2018-050; accredited by AAALAC) and are carried out according to the regulations of the Council of Agriculture, Taiwan. […]
To assess the level of hepatocellular injury after Con A treatment, serum GPT and GOT levels are measured by Fuji Dri-Chem slides (Fuji, Japan). […] Cytokine levels are measured by ProcartaPlex™ immunoassays kit according to manufacturer's instructions. […]

[4] = tested on: CCl4-induced chronic liver fibrosis; assay: CCl4-induced chronic liver fibrosis in rat; settings: in vivo
Method: Blood samples are collected at week 0, 2, 4, 6, and 8. The animals are sacrificed at the end of the 8-week for histopathological examinations. FIGS. 7A, 7B, 7C depict delta weight, liver weight, and liver/body-weight ratio, respectively.
The level of clinical biochemistry such as aspartate aminotransferase (AST), alanine aminotransferase (ALT), is evaluated to determine the enzymatic activities of the livers of the control groups and the experimental groups (shown in FIGS. 8A-8C).

[5] = tested on: NO, TNF-α, IL-1β, and IL-6; assay: Cisplatin-induced renal injury: pro-inflammatory cytokines in serum (ELISA); type: in vivo, mice; settings: compound, dose not given
Method: TNF-α, IL-6, and IL-1β cytokines in serum The serum concentration of the pro-inflammatory cytokines (i.e. tumor necrosis factor-α (TNF-α), interleukin-6 (IL-6), and IL-1β) in serum are assessed with relevant enzyme-linked immunosorbent assay (ELISA) kits (Biosource International Inc., Sunnyvale, Calif., USA), based on the manufacturer's instructions.
as §1
Renal fibrosis is induced via multiple injections of low-dose cisplatin. Intraperitoneal injections of cisplatin (5 mg/kg/injection; P4394, Sigma-Aldrich, St Louis, Mo.) are performed at 0, 1, and 3 weeks, for a total of 3 injections. Mice are sacrificed at 6 weeks after the first dose of cisplatin (n=6). […]

## C=C1C(=O)O[C@H]2/C=C(\C)CC3C=C(CC/C=C(\C)CC[C@H]12)C(=O)O3 (stereo partly drawn) [AR100-DS1, Ovatodiolide]
HepG2 cells
  OA-induced steatosis in HepG2 cells: inhibition
[1]
  necrosis and inflammatory infiltrating cells in the kidney tissue: significantly improved
[2]
  renal protection effect (normalization of serum CRE and BUN): significant renal protection effect
[3]
  liver necrosis histopathological score (0 to 4): 0.2±0.2
[4]
  CCl4-induced liver injury, overall: potential to partially repair
[5]
  NO, TNF-α, IL-1β, and IL-6 production after cisplatin challenge: improved
